Test results reported in publication PMC11504387, “Synthesis and Biological Activity Assessment of 2-Styrylbenzothiazoles as Potential Multifunctional Therapeutic Agents” (Antioxidants, 2024).
One block for each compound: values may come before it.

Columns and labels:
PMNL = test: ROS production in PMA-stimulated PMNL; format: cell-based, human; settings: 10 µM, mean ± SD
Description: After 10 min at 37 °C, PMA (0.1 μM) was added. The fluorescence emission at 530 nm was measured after excitation at 485 nm in a thermally controlled (37 °C) NOVOstar microplate reader (BMG Lab technologies GmbH, Offenburg, Germany). […] ROS generation was induced by phorbol-12-myristate-13-acetate (PMA), a widely recognized agent for stimulating ROS production in neutrophils and enhancing endogenous superoxide formation. Diphenyleneiodonium (DPI, 10 µM), a NADPH oxidase inhibitor, served as a positive control. Through this assay, we could assess the potential interaction of our compounds with intracellular ROS production and their capacity to act as radical scavengers within a relevant cellular context. Furthermore, the outcomes provided additional insights into their inhibitory mechanism and helped to determine whether they act directly or non-specifically, as there is evidence that an impact on the ROS levels in PMNL could be translated to modulation of 5-LO activity in the cellular environment. […] With those data in hand, together with 5-LO inhibition assay outcomes, a direct inhibition of the enzyme stands as the best fitting option regarding the mechanism of action of compounds BZTst4 and BZTst6. […] This phenomenon was not further explored because such investigation was beyond the scope of this work.

[1] = UV spectrophotometric analysis of compounds in solution; format: physicochemical; settings: at ʎmax, Lambert–Beer equation
Description: The synthesized compounds were solubilised in DMSO and diluted in MeOH, and the absorbance of the 10 µg/mL solution was measured between 290–400 nm with a UV-Vis spectrophotometer (SHIMADZU UV-2600 240 V, 1 cm quartz cell at 1 nm intervals). The absorbance at wavelength λ is related to the transmittance T(λ) via the Equation (1): A(λ) = −Log[T(λ)](1) where T(λ) is the fraction of incident irradiance transmitted by the sample. […]
The molar extinction coefficient was calculated with the absorbance recorded at the ʎmax applying the Lambert–Beer equation.

[2] = Photostability of O/W emulsions under solar simulator; format: physicochemical; settings: O/W emulsion on PMMA
Description: Oil-in-water (O/W) emulsions containing individual filters were spread on PMMA sheet and irradiated with a solar simulator by applying different doses of UVA equivalent to an erythema effective radiant exposure of 100 J/m^2. Photostability was assessed by analysing the spectral transmittance, before and after irradiation, of the sunscreen thin film, measured before and after exposure from 290 to 400 nm. The residual percentages of SPF in vitro (%SPFeff.) and UVAPF (%UVAPFeff.) were calculated according to Equations (6) and (7), respectively. When the %SPFeff. and %UVAPFeff. are greater than or equal to 80, according to current regulations, a filter can be considered photostable [37].
To evaluate the effectiveness and safety profile of a sunscreen formulation, it is necessary to provide data on its photostability. Photodegradation data can be obtained by recording the pre- and post-irradiation transmittance spectra of PMMA plates with finger-coat formulations exposed to a dose of UVA capable of causing erythema. This method, established by Garoli et al., is used to determine photostability. The sun protection layer’s transmission in the range of 290–400 nm is recorded before and after exposure to sunlight, following the protocol.
The residual percentages of SPF in vitro (%SPFeff.) and UVAPf (%UVAPfeff.) were calculated using Equations (6) and (7) and are listed in Table 4. A filter can be classified as photostable if the %SPFeff. is greater than or equal to 80, according to regulatory standards. %SPFeff. = in vitro SPFafter/in vitro SPFbefore × 100(6) %UVAPfeff. = UVAPfafter/UVAPfbefore × 100(7) where SPFafter and SPFbefore are the SPF values calculated from the software after and before solar irradiation, and UVAPfafter and UVAPfbefore are the UVAPf values calculated from the software after and before solar irradiation.

[3] = In vitro filtering parameters of O/W sunscreen formulation on PMMA plates; settings: 3% in O/W sunscreen formulation
Description: Synthesized compounds were incorporated at 3% concentration in a suitable oil-in-water (O/W) emulsion for cosmetic use as sunscreen.
INCI: Aqua, Glycerin, Xanthan Gum, Phenoxyethanol (and) Ethylhexylglycerin, Tribehenin PEG-20 Esters, Cetearyl Alcohol, Dicaprylyl Carbonate, PPG 26 Buteth-26 (and) PEG 40 Hydrogenated Castor Oil, C12-15 Alkyl Benzoate, Sodium hydroxide (sol. 10%).
A protocol previously reported by us was adopted. Briefly, 32.5 mg of each compound formulation was spread on the rough surface of 5 × 5 cm^2 PMMA plates in the form of small drops of approximately equal mass, in triplicate. The plates were placed in the dark for 15–30 min to allow the formation of a sun-stabilised standard layer and then inserted into the instrument and measured at five different points on each plate (UV transmittance range 290–400 nm). The blank was a plate coated with 32.5 mg glycerine, chosen for its non-fluorescence and UV transparency. In addition, in vitro SPF, UVAPF and ʎc values were calculated according to Equations (2)–(4) above. To evaluate the booster effect of selected synthesized compounds, they were incorporated at 3% concentration in an oil-in-water (O/W) sunscreen formulation with fixed SPF and UVAPf values (30 and 10, respectively).
Aiming to create compounds with diverse biological activities, the synthesized 2-styrylbenzothiazoles were examined for potential applications in sunscreens. Each candidate was incorporated into a standard cosmetic formulation at a concentration of 3% and subjected to photoprotective efficacy testing using the Diffey–Robson method. The formulation comprised an oil-in-water (O/W) emulsion suitable for sunscreen use, with each benzothiazole derivative being heat-solubilized in the oil phase and then dispersed into the emulsion using a turbo emulsifier. The mixture was then cooled, and the emulsion was spread onto polymethylmethacrylate (PMMA) plates before recording the transmittance spectra. The SPF value, UVA protection factor value (UVAPF), the […], and the critical wavelength (λc) were determined from the transmittance spectra using SPF calculator software and are presented in Table 3. These parameters are essential for evaluating the efficacy of potential sunscreen products.

[4] = target: T1, 5-LO in A23187-stimulated human PMNL (Homo sapiens, UniProt P09917); test: 5-Lipoxygenase inhibition in a cell-based assay (PMNL); settings: PMNL; 3 µM; % relative to vehicle (DMSO); read-out: 5-LO Residual Activity (PMNL)
T1 construct: Freshly isolated PMNL (1 × 10^6 cells/mL) in PBS buffer pH 7.4; endogenous in cells; host or cells: primary human PMNL (neutrophils) isolated from blood
T1 sequence (P09917 1-674): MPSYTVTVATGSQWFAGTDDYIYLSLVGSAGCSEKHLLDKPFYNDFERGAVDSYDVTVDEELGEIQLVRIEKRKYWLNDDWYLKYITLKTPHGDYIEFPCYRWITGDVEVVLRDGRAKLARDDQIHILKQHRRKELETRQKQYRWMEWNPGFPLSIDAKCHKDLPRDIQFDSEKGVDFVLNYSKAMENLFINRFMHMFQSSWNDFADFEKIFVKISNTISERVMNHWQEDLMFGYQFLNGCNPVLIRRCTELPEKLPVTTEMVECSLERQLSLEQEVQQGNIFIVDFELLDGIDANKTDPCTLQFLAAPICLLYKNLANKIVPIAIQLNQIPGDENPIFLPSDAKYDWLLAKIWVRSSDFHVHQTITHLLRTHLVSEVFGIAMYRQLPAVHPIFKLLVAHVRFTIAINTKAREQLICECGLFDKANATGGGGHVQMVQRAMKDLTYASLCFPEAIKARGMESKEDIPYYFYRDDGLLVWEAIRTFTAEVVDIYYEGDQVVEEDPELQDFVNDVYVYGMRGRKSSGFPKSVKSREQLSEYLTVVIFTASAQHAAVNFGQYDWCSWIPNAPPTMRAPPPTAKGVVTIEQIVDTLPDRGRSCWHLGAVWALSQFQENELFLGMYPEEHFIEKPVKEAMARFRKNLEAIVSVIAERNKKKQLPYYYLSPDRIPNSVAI
Description: Following blood density centrifugation and cell population separation, PMNL was recovered from the pellet after hypotonic lysis of erythrocytes. Freshly isolated PMNL (1 × 10^6 cells/mL) in PBS buffer pH 7.4 with glucose (1 mg/mL) and CaCl2 (1 mM) was pre-incubated with the test compounds for 10 min at 37 °C. Then, 5-lipoxygenase (5-LO) product formation was started by addition of 2.5 μM Ca^2+-ionophore A23187 plus 20 μM arachidonic acid. The reaction was stopped after 10 min at 37 °C with 1 mL of ice-cold methanol containing 200 ng PGB1 as internal standard. Major 5-LO products (LTB4, trans-LTB4, epi-trans-LTB4, and 5-HETE) were extracted by SPE using Sep-Pak C18 35 cc Vac Cartridges (Waters, Milford, MA, USA) and analysed by UPLC-MS/MS as described by Pein et al..

Human recombinant 5-LO = target: T2, Human recombinant 5-LO (Homo sapiens, UniProt P09917); test: 5-Lipoxygenase inhibition in a cell-free assay; format: biochemical; settings: 3 µM; % relative to vehicle (DMSO); read-out: 5-LO Residual Activity (Cell-Free)
T2 construct: made in house
T2 sequence (P09917 1-674): T1 sequence (P09917 1-674)
Description: Human recombinant 5-LO was expressed and isolated as described before, and immediately used for activity assays after isolation. The 5-LO (0.5 µg, in 1 mL PBS pH 7.4 containing 1 mM EDTA) was pre-incubated with the test compounds for 10 min at 4 °C and pre-warmed for 30 s at 37 °C. 5-LO product formation was initiated by sequential addition of 1 mM CaCl2 and 20 μM arachidonic acid. After 10 min at 37 °C, the reaction was terminated by addition of 1 mL ice-cold methanol containing 200 ng PGB1 as internal standard. Formed 5-LO products (trans-LTB4, epi-trans-LTB4, and 5-HETE) were extracted using Sep-Pak C18 35 cc Vac Cartridges and analysed by UPLC-MS/MS as previously described.

[5] = system: human melanoma Colo38 cells; test: Cell growth inhibition assay, Colo38; format: cell-based; settings: 24 h incubation; mean ± SD
Description: Cell growth inhibition analyses were performed on human melanoma Colo38 cells and skin HaCat keratinocytes. Human melanoma Colo38 cells were kindly given by Dr. Patrizio Giacomini (Laboratory of Immunology, Regina Elena Institute, Rome, Italy). HaCat cells were obtained from Istituto Zooprofilattico Sperimentale della Lombardia e dell’Emilia-Romagna, Brescia, Italy. Cells were seeded at 40,000 cells/mL and 25,000 cells/mL, respectively. Colo38 cells were maintained in RPMI 1640, supplemented with 10% foetal bovine serum (FBS), penicillin (100 Units/mL), and streptomycin (100 µg/mL). HaCat cells were maintained in DMEM, supplemented with 10% fatal bovine serum (FBS), penicillin (100 Units/mL), streptomycin (100 µg/mL) and glutamine (2 mM); the incubation was performed at 37 °C in a 5% CO2 atmosphere. Compounds were dissolved in DMSO to obtain 50 mM stock solutions and diluted before cell treatment in MeOH. The tested compounds were added at serial dilutions to the cell cultures (from 0.1 to 100 µM) and incubated for 24 h further. Cells were then harvested, suspended in physiological solution, and counted with a Z2 Coulter Counter (Coulter Electronics, Hialeah, FL, USA). The number of cells/mL and the IC50 values were determined when untreated cells were in the log phase of cell growth. Samples of vehicles and untreated cells were included in each plate. Cisplatin was used as positive control for the HaCat cells, while N1-(4-arylidene)-1H-(2-OH-4-N(Et)2-phenyl)-[d]imidazole-2-carbohydrazide was used as positive control for the Colo38 cell line.

Compound: c1ccc2c(c1)[I+]c1ccccc1-2 [DPI, Diphenyleneiodonium, reference compound]
ROS Production (% of Control) (PMNL): 16.44 ± 2.14 % of control

Compound: O=S(=O)(O)c1ccc2[nH]c(-c3ccccc3)nc2c1 [PBSA, 2-Phenyl-1H-Benzimidazole-5-Sulphonic Acid, reference compound]
Ɛ (molar extinction coefficient) [1]: 23,881.86 dm^3 mol^−1 cm^−1
%UVAPfeff. ([2]; residual UVAPF after solar irradiation): 100.00%
%SPFeff. ([2]; residual in vitro SPF after solar irradiation): 103.66%
SPF [3]: 1.91
UVA/UVB [3]: 0.67
UVAPF [3]: 1.13
ʎc (critical wavelength) [3]: 357 nm

remaining activity at 3 µM [4]: 31.3 ± 12.7%
remaining activity at 3 µM (Human recombinant 5-LO): 28.6 ± 7.38%
Compound: CC(c1cc2ccccc2s1)N(O)C(N)=O (centres unmarked) [Zileuton, zileuton, reference compound]

IC50 [5]: 700 ± 60 nM
Compound: N^1-(4-arylidene)-1H-(2-OH-4-N(Et)2-phenyl)-[d]imidazole-2-carbohydrazide [Cmp 13, reference compound]
